Results taken from patent US20210169882A1, “PHARMACEUTICAL COMPOSITION FOR PROTECTING OR MITIGATING RADIATION DAMAGE, AND FOR PREVENTING OR TREATING PULMONARY FIBROSIS” (KOREA INSTITUTE OF RADIOLOGICAL & MEDICAL SCIENCES, priority 2017, published 2021).

What was measured:
[1] = test system: pulmonary vascular endothelial cells of irradiated C57BL/6 mouse lung; assay: Pulmonary fibrosis inhibition test in experimental animal model (collagen, trichrome staining); format: in vivo; settings: 30 mg/kg intraperitoneally one hour before 90 Gy lung irradiation, compared to the irradiation group (IR)
Protocol: The tissue of a mouse was fixed with 10% neutral formalin for one day, and a paraffin section was made. In order to remove paraffin around the tissue, the tissue was allowed to react with a xylene solution and 95%, 90%, and 70% ethanol solutions in sequential order for 5 minutes each. For the antigen activation of the tissue, the tissue was immersed in a 0.1 M citric acid solution (pH 6.0) and then boiled for 20 minutes. Subsequently, the tissue was allowed to react with a Bouin's solution for 1 minute, Weigert's hematoxylin for 10 minutes, phoshotunstic/phosphomolydic acid for 10 minutes, aniline blue for 5 minutes, and 1% acetic acid for 1 minute in sequential order. Thereafter, a dehydration process was performed, and then the tissue was covered with a cover glass and observed under a microscope (Carl Zeiss Vision).
In order to observe whether a phenomenon of pulmonary fibrosis of vascular endothelial cells is shown as the symptom of pulmonary fibrosis occurred after radiotherapy, the site of the lung of a C57BL/6 mouse was topically irradiated with an intensity of 90 Gy. After excising the lung from the mouse, the cross-section of the aorta of the lung tissue was stained by a trichrome staining method in order to identify collagen which is a protein shown upon fibrosis of the pulmonary vascular endothelial cells.

γH2AX = assay: Inhibition test of GSK3 inhibitor on DNA damage caused by radiation (γH2AX immunostaining); format: in vivo, mouse; settings: 30 mg/kg one hour prior to 90 Gy lung irradiation, compared to the non-treatment group (IR)
Protocol: The tissue of a mouse was fixed with 10% neutral formalin for one day, and a paraffin section was made. In order to remove paraffin around the tissue, the tissue was immersed in a xylene solution and 100%, 95%, 90%, and 70% ethanol solutions in sequential order. For the antigen activation of the tissue, the tissue was immersed in a 0.1 M citric acid solution (pH 6.0) and boiled for 30 minutes, and then reacted with 3% hydrogen peroxide for 15 minutes. The tissue was allowed to react with γH2AX (abcam), which was diluted in 1:200 ratio in a PBS solution (including phosphate based saline buffer and 0.1% triton x-100), at 4° C. for 16 hours. After washing the tissue with PBS, a secondary antibody conjugated with biotin was diluted in 1:200 ratio and reacted with the tissue at room temperature for 30 minutes. After reacting the tissue with ABC (Avidin biotin complex) at room temperature for 30 minutes and color-developing 3,3′-DAB (3,3′-diaminobenzidine), the tissue was counterstained with hematoxylin. Subsequently, the tissue was immersed in 50%, 70%, 90%, 95%, and 100% ethanol solutions and a xylene solution in sequential order, followed by dropping one drop of a mounting solution. Then, the tissue was covered with a cover slide and observed under a microscope (Carl Zeiss Vision). […]

[2] = test system: lung tissue of a mouse animal model irradiated with 90 Gy; assay: Inhibition test of GSK3 inhibitor on tissue damage caused by radiation (H&E staining); format: in vivo; settings: 30 mg/kg intraperitoneally one hour before 90 Gy chest irradiation, two weeks after irradiation, compared to the non-treatment group (IR)
Protocol: The tissue of a mouse was fixed with 10% neutral formalin for one day, and a paraffin section was made. In order to remove the paraffin around the tissue, the tissue was allowed to react with a xylene solution and 95%, 90%, and 70% ethanol solutions in sequential order for 5 minutes each, and then immersed in a hematoxylin solution for 1 minute to stain the nuclei and then washed under running water for 10 minutes. Thereafter, the cytoplasm was stained by immersing the tissue in an eosin solution for 30 seconds. Thereafter, the tissue was immersed in 50%, 70%, 90%, and 95% ethanol solutions, and a xylene solution in sequential order, followed by dropping one drop of a mounting solution. Then, the tissue was covered with a cover slide and observed under a microscope (Carl Zeiss Vision). The lung tissue of a mouse animal model, in which the chest of the mouse was irradiated in a size of 3 mm with an intensity of 90 Gy, was fixed with 10% formalin, and a paraffin section was made. Thereafter, tissue inflammatory response and fibrosis were identified by using a hematoxylin and eosin staining method. […] Two weeks after the irradiation, the inflammatory response and fibrosis of the tissue damage site were identified by using a hamatoxylin and eosin staining method.

[3] = test system: vascular wall in the lung tissue of a mouse animal model irradiated with 90 Gy; assay: Inhibition test of GSK3 inhibitor on in vivo vascular damage caused by radiation (vascular wall thickness, H&E staining); settings: 30 mg/kg intraperitoneally one hour before 90 Gy chest irradiation, two weeks after irradiation, compared to the non-treatment group (IR)
Protocol: (§1) The tissue of a mouse was fixed with 10% neutral formalin for one day, and a paraffin section was made. In order to remove the paraffin around the tissue, the tissue was allowed to react with a xylene solution and 95%, 90%, and 70% ethanol solutions in sequential order for 5 minutes each, and then immersed in a hematoxylin solution for 1 minute to stain the nuclei and then washed under running water for 10 minutes. Thereafter, the cytoplasm was stained by immersing the tissue in an eosin solution for 30 seconds. Thereafter, the tissue was immersed in 50%, 70%, 90%, and 95% ethanol solutions, and a xylene solution in sequential order, followed by dropping one drop of a mounting solution. Then, the tissue was covered with a cover slide and observed under a microscope (Carl Zeiss Vision).
The lung tissue of a mouse animal model, in which the chest of the mouse was irradiated in a size of 3 mm with an intensity of 90 Gy, was fixed with 10% formalin, and a paraffin section was made. Thereafter, the tissue was stained with hematoxylin and eosin. Upon observing the tissue with this staining method, the cell nucleus is observed in blue and the cytoplasm in pink. One hour before irradiating the mouse animal model, 30 mg/kg of […] or CHIR-98014 was administered intraperitoneally. […]

[4] = test system: lung tissue of bleomycin-injected mouse; assay: Inhibition test of GSK3 inhibitor on tissue damage caused by bleomycin (bleomycin-induced pulmonary fibrosis model); format: in vivo; settings: 30 mg/kg intraperitoneally one hour before 1.25 U/kg bleomycin into the airway; three weeks after injection; H&E and trichrome staining; compared to the non-treatment group
Protocol: as §1
The tissue of a mouse was fixed with 10% neutral formalin for one day, and a paraffin section was made. In order to remove paraffin around the tissue, the tissue was allowed to react with a xylene solution and 95%, 90%, and 70% ethanol solutions in sequential order for 5 minutes each. For the antigen activation of the tissue, the tissue was immersed in a 0.1 M citric acid solution (pH 6.0) and then boiled for 20 minutes. […]

## Cc1c[nH]c(-c2cnc(NCCNc3ccc(C#N)cn3)nc2-c2ccc(Cl)cc2Cl)n1 [CHIR-99021, 6-[[2-[[4-(2,4-dichlorophenyl)-5-(5-methyl-1H-imidazol-2-yl)-2-pyrimidinyl]amino]ethyl]amino]-3-pyridinecarbonitrile]
[1]
  blue sites of collagen (protein associated with pulmonary fibrosis) in inner wall of the aorta of the lung: remarkably reduced
γH2AX
  expression of γH2AX according to the DNA damage: remarkably reduced
[2]
  infiltration of the inflammatory cells and the fibrotic matrix around blood vessels: remarkably reduced
[3]
  thickness of the vascular wall: remarkably reduced
[4]
  pathological characteristics (infiltration of inflammatory cells, deposition of collagen, fibrous nodules, interstitial thickening): remarkably inhibited

## Nc1nc(NCCNc2ncc(-c3ncc[nH]3)c(-c3ccc(Cl)cc3Cl)n2)ccc1[N+](=O)[O-] [CHIR-98014, N-6-[2-[[4-(2,4-dichlorophenyl)-5-(1H-imidazol-2-yl)-2-pyrimidinyl]amino]ethyl]-3-nitro-2,6-pyridinediamine]
[1]
  blue sites of collagen (protein associated with pulmonary fibrosis) in inner wall of the aorta of the lung: remarkably reduced
γH2AX
  expression of γH2AX according to the DNA damage: remarkably reduced
[2]
  infiltration of the inflammatory cells and the fibrotic matrix around blood vessels: remarkably reduced
[3]
  thickness of the vascular wall: remarkably reduced
[4]
  pathological characteristics (infiltration of inflammatory cells, deposition of collagen, fibrous nodules, interstitial thickening): remarkably inhibited
